Our source for the TGI values is PubChem BioAssay (NCI).

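Where inhibition never reached the appropriate level, the endpoint shown equals the highest concentration tested. Otherwise, values were interpolated linearly from a five-concentration, 48-hour dose response in 96-well plates. The concentration for full growth arrest is given as TGI.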 Some results are limits rather than exact numbers.

Among the test systems are IGROV1 ovarian; SK-MEL-5 melanoma; CCRF-CEM leukemia; UO-31 renal; KM12 colon; SF-268 CNS; HL-60(TB) leukemia; TK-10 renal; MDA-MB-231 breast; EKVX NSCLC; SF-539 CNS; OVCAR-8 ovarian; HS 578T breast; MOLT-4 leukemia; ACHN renal; COLO 205 colon; A498 renal; HCC-2998 colon; MALME-3M melanoma.
Test in all cases: NCI-60 cell line screen, 48 h

As to `COC(=O)/C=C(/C(=O)OC)c1c(C)cc2c(C)cc(C)cc(C)c1-2`, the TGI in the assay with IGROV1 ovarian is above 100 µM; in the assay on SK-MEL-5 melanoma, 23.5 µM; with CCRF-CEM leukemia it was above 100 µM; in the assay with UO-31 renal, 98.2 µM; with KM12 colon it was above 58.2 µM; in the assay with SF-268 CNS, above 65.7 µM. Moreover, the TGI in the assay on HL-60(TB) leukemia is above 100 µM; in the assay on TK-10 renal, above 83.3 µM; with MDA-MB-231 breast, 15.3 µM; with EKVX NSCLC, above 95.3 µM; in the assay on SF-539 CNS, 26.7 µM; in the assay with OVCAR-8 ovarian, above 86.6 µM. Further, the TGI is 51.1 µM in the assay on HS 578T breast; above 100 µM in the assay on MOLT-4 leukemia; above 100 µM with ACHN renal; 22.4 µM with COLO 205 colon; 70.3 µM in the assay on A498 renal; above 100 µM with HCC-2998 colon. The TGI in the assay on MALME-3M melanoma is above 65.5 µM.

On to `Cc1ccc(/C(O)=C/c2nc3ccccc3[nH]c2=O)c(C)c1`, for which the TGI in the assay on IGROV1 ovarian is above 59.9 µM; in the assay on SK-MEL-5 melanoma, above 92.1 µM; with CCRF-CEM leukemia, above 100 µM; in the assay with UO-31 renal, 30.6 µM; with KM12 colon, above 61.5 µM; in the assay with SF-268 CNS, 25 µM. For the same compound, the TGI in the assay on HL-60(TB) leukemia was above 100 µM; in the assay with TK-10 renal it was 21.1 µM; with MDA-MB-231 breast it was above 46.6 µM; with EKVX NSCLC it was 56.1 µM; in the assay on SF-539 CNS it was 31.6 µM; with OVCAR-8 ovarian it was 25.4 µM. Further, the TGI was 59.2 µM with HS 578T breast; above 100 µM in the assay with MOLT-4 leukemia; 30 µM with ACHN renal; above 100 µM in the assay on COLO 205 colon; 9.12 µM in the assay on A498 renal; above 100 µM in the assay on HCC-2998 colon. The compound also showed a TGI with MALME-3M melanoma of 98.8 µM.

In the case of `COc1cccc(C[C@H]2COC(=O)[C@]2(O)Cc2cccc(OC)c2)c1`, the TGI in the assay on IGROV1 ovarian was above 100 µM; in the assay on SK-MEL-5 melanoma, above 100 µM; in the assay with CCRF-CEM leukemia, above 100 µM; with UO-31 renal it was above 100 µM; with KM12 colon, above 100 µM; in the assay with SF-268 CNS it was 39.4 µM. In addition, the TGI in the assay with HL-60(TB) leukemia is above 100 µM; in the assay with TK-10 renal, above 100 µM; with MDA-MB-231 breast it was above 100 µM; with EKVX NSCLC, 81.6 µM; in the assay with SF-539 CNS it was above 100 µM; with OVCAR-8 ovarian, above 100 µM. Further, the TGI in the assay on HS 578T breast, with MOLT-4 leukemia, in the assay on ACHN renal, in the assay on COLO 205 colon, in the assay on A498 renal and with HCC-2998 colon was above 100 µM throughout. The compound also returned a TGI in the assay with MALME-3M melanoma above 100 µM.

Consider `Cc1cc(N)ccc1C=O`, for which the TGI with IGROV1 ovarian, in the assay with SK-MEL-5 melanoma, with CCRF-CEM leukemia, in the assay on UO-31 renal, in the assay with KM12 colon and with SF-268 CNS was above 100 µM in each case. The TGI in the assay with HL-60(TB) leukemia, in the assay with TK-10 renal, in the assay with MDA-MB-231 breast, with EKVX NSCLC, with SF-539 CNS and in the assay with OVCAR-8 ovarian was above 100 µM throughout. Besides, the TGI in the assay on HS 578T breast, with MOLT-4 leukemia, in the assay on ACHN renal, in the assay with COLO 205 colon, with A498 renal and with HCC-2998 colon was above 100 µM in each case. For the same compound, the TGI with MALME-3M melanoma is above 100 µM.

For the compound `O=C(OC(/C=C/c1ccccc1)P1(=O)N(Cc2ccccc2)[C@@H]2CCCC[C@H]2N1Cc1ccccc1)c1ccccc1` (stereo partly drawn), the TGI is above 25.6 µM in the assay on IGROV1 ovarian; 11.4 µM in the assay on SK-MEL-5 melanoma; 7.88 µM in the assay on CCRF-CEM leukemia; 68.6 µM in the assay on UO-31 renal; above 100 µM in the assay with KM12 colon; above 100 µM in the assay on SF-268 CNS. The TGI in the assay on HL-60(TB) leukemia was 7.43 µM; in the assay with TK-10 renal, above 100 µM; in the assay with MDA-MB-231 breast, 30.3 µM; with EKVX NSCLC, above 100 µM; in the assay with SF-539 CNS, above 100 µM; in the assay with OVCAR-8 ovarian it was above 29.8 µM. Moreover, the TGI in the assay on HS 578T breast was above 100 µM; in the assay with MOLT-4 leukemia it was 6.47 µM; in the assay on ACHN renal, above 100 µM; in the assay on COLO 205 colon, 4.75 µM; in the assay with A498 renal, above 100 µM; in the assay with HCC-2998 colon, above 100 µM. In the assay on MALME-3M melanoma, this compound had a TGI above 75.5 µM.

`O=[N+]([O-])c1ccc(NC(=S)Nc2ccccn2)cc1`: the TGI in the assay with IGROV1 ovarian is above 100 µM; in the assay on SK-MEL-5 melanoma, above 100 µM; with CCRF-CEM leukemia, above 100 µM; with UO-31 renal it was above 100 µM; with KM12 colon it was above 55.6 µM; in the assay with SF-268 CNS, above 91.7 µM. Besides, the TGI with HL-60(TB) leukemia is above 73.7 µM; in the assay on TK-10 renal it was above 93.2 µM; in the assay on MDA-MB-231 breast, above 100 µM; in the assay on EKVX NSCLC, above 85.6 µM; in the assay on SF-539 CNS, 55.5 µM; in the assay on OVCAR-8 ovarian, above 100 µM. Further, the TGI in the assay on HS 578T breast is 63 µM; in the assay with MOLT-4 leukemia, above 100 µM; with ACHN renal, above 100 µM; in the assay with COLO 205 colon, above 94.5 µM; in the assay on A498 renal, 45.6 µM; in the assay with HCC-2998 colon it was above 100 µM. In the assay with MALME-3M melanoma, this compound returned a TGI above 100 µM.

For the compound `COc1ccc2c(c1)CCCN1Cc3ccccc3CC21` (stereo not drawn), the TGI was above 100 µM in the assay on IGROV1 ovarian; 56.7 µM in the assay on SK-MEL-5 melanoma; above 100 µM with CCRF-CEM leukemia; above 100 µM in the assay with UO-31 renal; above 100 µM in the assay with KM12 colon; above 100 µM in the assay with SF-268 CNS. For the same compound, the TGI in the assay with HL-60(TB) leukemia, with TK-10 renal, in the assay on MDA-MB-231 breast, in the assay on EKVX NSCLC, in the assay on SF-539 CNS and with OVCAR-8 ovarian was above 100 µM in each case. The TGI in the assay with HS 578T breast was above 100 µM; in the assay on MOLT-4 leukemia, above 100 µM; in the assay on ACHN renal, above 100 µM; in the assay on COLO 205 colon, above 100 µM; in the assay on A498 renal, 96.8 µM; in the assay with HCC-2998 colon, above 100 µM. This compound gave a TGI with MALME-3M melanoma above 100 µM.
